# Source: PMC12036814 (Angewandte Chemie (International Ed. in English), 2025)
# Legend:
# [1] = target: T1, AIFM1 (Homo sapiens, UniProt O95831); experiment: Gel-based labelling of recombinant AIFM1 spiked into HEK-293 lysate; type: binding; settings: 5 μM probe, AIFM1 spiked in HEK-293 lysate
# T1 construct: made in house; host or cells: E. coli Rosetta2
# Protocol: AIFM1 expression & purification
# Recombinant AIFM1 was expressed in a Rosetta2 E. coli strain. Bacterial growth was conducted in LB media supplemented with riboflavin and FAD shaking at 37°C and 180 rpm. Expression was induced with 1.0 mM IPTG and incubated for further 16 h before harvesting. Cells were harvested on ice in PBS and cell pellets stored at -20°C. Cells were lysed by French press and the 6xHis-tagged constructs were purified by Immobilized Metal Affinity Chromatography using Ni Sepharose (6 Fast Flow, GE). The centrifugation-cleared bacterial lysate was bound to beads in binding buffer (200 mM NaCl, 20 mM Tris/Cl pH = 7.4). […]
# For gel-based fluorescence labelling of recombinant AIFM1, 1.7 µM recombinant protein was spiked - in to PBS or PBS -diluted HEK293 cell lysate ( 100 µg per reaction sample). […]
# Click Master-mix (8 µL, 100 µM TAMRA-azide, Baseclick, Neuried, Germany, Cat# BCFA-008-10, 500 µM BTTAA ligand, Jena Bioscience, Jena, Germany, CLK -067, 1 mM CuSO4) was added and the CuAAC reaction started by addition of 2 µL of aq. sodium ascorbate (c end= 2 mM). […] Fluorescence scanning was performed using a Las-3000 fluorescence darkbox (Fujifilm, Minato, Japan) with a Fujinon VRF 43LMD Lens, 605DF40 filter and 520 nm EPI excitation wavelength and loading controls were developed with Coomassie stain afterwards. […]
# [2] = target: T2, SCARB1 (Homo sapiens, UniProt Q8WTV0); experiment: Microscale thermophoresis (MST) binding
# T2 construct: purchased Hölzel Biotech SC1-H82E5
# T2 sequence (Q8WTV0 1-552): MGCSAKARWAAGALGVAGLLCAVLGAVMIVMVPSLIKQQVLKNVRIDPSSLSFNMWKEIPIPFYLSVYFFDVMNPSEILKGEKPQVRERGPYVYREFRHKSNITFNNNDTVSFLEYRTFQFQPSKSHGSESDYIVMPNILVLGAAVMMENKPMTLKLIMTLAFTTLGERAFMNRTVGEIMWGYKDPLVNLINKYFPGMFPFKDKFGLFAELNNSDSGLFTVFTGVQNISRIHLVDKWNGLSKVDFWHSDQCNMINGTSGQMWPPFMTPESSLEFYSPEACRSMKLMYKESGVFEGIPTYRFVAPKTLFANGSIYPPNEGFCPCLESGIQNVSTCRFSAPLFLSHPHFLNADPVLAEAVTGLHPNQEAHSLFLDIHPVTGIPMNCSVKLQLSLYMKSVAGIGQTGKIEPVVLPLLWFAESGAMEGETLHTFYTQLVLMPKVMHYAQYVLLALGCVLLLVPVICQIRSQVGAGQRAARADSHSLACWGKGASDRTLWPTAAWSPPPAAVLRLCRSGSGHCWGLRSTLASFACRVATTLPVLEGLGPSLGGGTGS
# Protocol: reaction was terminated by addition of 800 μL EtOAc+0.5% AcOH, 300 μL H2O and 100 μL internal standard (13,14-dihydro-15-ketoprostaglandin -d4, 300 pmol/sample, Cayman Chemical, Ann Arbor, USA, Cat# 10010606). Of the organic phase 600 μL was transferred into a fresh Eppendorf tube and the solvent removed in a SpeedVac. The residue was dissolved in 100 μL acetonitrile/ H2O (1:1) and measured with LC-MS/MS. Gradient: Solvent A = H2O + 0.1% formic acid, solvent B = acetonitrile + 0.5% formic acid, flow rate = 0 .4 mL/min, run length 6 min, gradient = 0 min 30% B, 1 min 30% B, 2 min 31.5% B, 2.1 min 95% B, 4 min 95% B, 4.1 min 30% B, 6 min 30% B. MS settings: Capillary = 3.0 kV, sampling cone = […], extraction cone […], source temperature = 100 °C, desolvat ion temperature = 350 °C, cone gas flow = 50.0 L/h, desolvation gas flow = 650.0 L/h, scan time = 0.250 s, inter-scan time = 0.020 s, mass range = 100 -800 Da. Masses of 15 -ketoprostaglandin (349.2 Da, collision energy = 21.0 eV), 13,14 -dihydro-15-ketoprostaglandin (351.2 Da, collision energy = 18.0 eV) and 13,14-dihydro-15-ketoprostaglandin (355.2 Da, collision energy = 10.0 eV) were set for MRM. The areas under the curve (AUC) were used to quantify 15 -keto-PGE2 and 13,14 -dihydro-15-keto-PGE2 levels by determining peak areas in relation to internal standard […]. The experiment was […]
# Microscale thermophoresis (MST) was performed as follows: Monolith His -Tag Labeling Kit RED -tris-NTA 2nd Generation (NanoTemper Technologies, Munich, Germany, Cat# MO -L018) was used for KD determination as recommended by the purchaser. Briefly, SCARB1 ( Hölzel Biotech, Cologne, Germany, Cat# SC1-H82E5) concentration (50 nM) was adjusted in assay buffer and labelled by the RED -tris-NTA dye (100 nM). This mixture was added to compound dilution series (c = 1 mM to 30 nM) and measured using Monolith NT.115 (NanoTemper Technologies, Munich, Germany ). The experiment was performed once and analysed with the MO Affinity Analysis software (NanoTemper).
# NUDT1 target validation efforts:
# Recombinant NUDT1 expression & purification […]
# [3] = tested on: HEK‐293 cells; experiment: Whole proteome analysis (LC-MS/MS, LFQ) of treated HEK-293 cells; settings: 1 µM, 24 h, versus vehicle
# T1 sequence (O95831 102-613): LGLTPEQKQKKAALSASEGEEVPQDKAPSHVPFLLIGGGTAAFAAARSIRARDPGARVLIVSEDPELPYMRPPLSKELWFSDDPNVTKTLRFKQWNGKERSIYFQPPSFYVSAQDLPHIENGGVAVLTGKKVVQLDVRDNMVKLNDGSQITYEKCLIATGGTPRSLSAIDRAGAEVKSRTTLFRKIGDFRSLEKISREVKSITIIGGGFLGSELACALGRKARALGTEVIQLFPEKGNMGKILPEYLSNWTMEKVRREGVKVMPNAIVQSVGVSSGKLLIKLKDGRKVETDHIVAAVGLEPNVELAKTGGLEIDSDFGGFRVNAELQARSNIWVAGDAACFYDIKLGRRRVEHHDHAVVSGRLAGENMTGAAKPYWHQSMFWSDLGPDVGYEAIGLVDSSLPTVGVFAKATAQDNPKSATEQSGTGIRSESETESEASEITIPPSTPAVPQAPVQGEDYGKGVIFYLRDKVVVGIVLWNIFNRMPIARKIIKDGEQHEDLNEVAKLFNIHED
"Kd ([2]; acquisition software MO.Control, read-out: binding affinity (Kd)) [µM]",binding to SCARB1 ([2]; aggregation/precipitation at high compound concentrations),SMILES,gel-based labelling of recombinant AIFM1 by probe [1],pattern of downregulated proteins and affected pathways [3]
394,weak binding,C#CCCC1(CCN2CCN(c3cc4c(cc3F)c(=O)c(C(=O)O)cn4C3CC3)CC2)N=N1 [Cipro P1],strong fluorescent band corresponding to the molecular weight of AIFM1,–
–,–,Cc1ccccc1CN1C(=O)C2=C(CCN(Cc3ccccc3)C2)N2CCN=C12 [ONC201],–,strikingly similar to Ciprofloxacin treated cells
